Experimental data reported in patent US20260001849A1, “NOVEL B0AT1 INHIBITOR” (MITSUBISHI TANABE PHARMA CORPORATION, priority 2023, published 2026).

target: T1, Human BOAT1 (Homo sapiens, UniProt Q695T7); experiment: hBOAT1 inhibitory test (phenylalanine uptake); format: cell-based; settings: Human BOAT1 stable expression CHO cells; [3H]-L-phenylalanine uptake, phenylalanine 0.25 mM; radioactivity after 100 to 200 min; read-out: hB0AT1 IC50
T1 construct: expressed in transfected cells
T1 sequence (Q695T7 1-634): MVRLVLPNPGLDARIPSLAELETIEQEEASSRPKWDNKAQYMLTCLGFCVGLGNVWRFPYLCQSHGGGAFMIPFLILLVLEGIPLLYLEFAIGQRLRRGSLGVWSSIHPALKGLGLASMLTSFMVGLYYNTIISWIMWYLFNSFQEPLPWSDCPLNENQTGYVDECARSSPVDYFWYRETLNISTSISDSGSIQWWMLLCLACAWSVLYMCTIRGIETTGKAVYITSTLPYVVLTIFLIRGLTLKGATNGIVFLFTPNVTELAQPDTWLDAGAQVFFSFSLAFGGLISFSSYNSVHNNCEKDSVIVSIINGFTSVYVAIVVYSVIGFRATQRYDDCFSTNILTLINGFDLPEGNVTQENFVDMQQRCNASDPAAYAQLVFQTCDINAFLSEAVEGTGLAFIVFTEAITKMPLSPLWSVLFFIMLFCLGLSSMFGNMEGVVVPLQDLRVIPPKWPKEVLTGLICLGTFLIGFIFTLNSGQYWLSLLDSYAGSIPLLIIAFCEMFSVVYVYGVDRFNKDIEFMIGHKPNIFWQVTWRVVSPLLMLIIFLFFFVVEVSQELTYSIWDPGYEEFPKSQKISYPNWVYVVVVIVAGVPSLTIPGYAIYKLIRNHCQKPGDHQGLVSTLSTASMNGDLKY
Protocol: A test compound dissolved in dimethyl sulfoxide (DMSO) was added to a 96 well plate for solid phase radioactivity measurement containing a scintillator at the bottom of the well (final concentration of DMSO 0.5%). DMSO alone as a control and DMSO containing N-(4-bromophenyl)-3,5-dichloro-2-hydroxybenzamide (final concentration […]) for the measurement of BOAT1 non-specific uptake were similarly added at 0.5 μL per well. Human BOAT1 stable expression CHO cells suspended in a buffer (buffer containing 96 mM sodium chloride, 2 mM potassium chloride, 1.8 mM calcium chloride, 1 mM magnesium chloride, 0.01% bovine serum albumin, and 10 mM 2-[4-(2-hydroxyethyl)-1-piperazinyl]ethanesulfonic acid) were added by 90 μL to 75000 cells/well. After standing at ordinary temperature for 30 min or longer, the cells were subjected to a phenylalanine uptake experiment. A buffer containing L-phenylalanine and [3,4,5-3H]-L-phenylalanine was added by 10 μL per well (final concentration of phenylalanine 0.25 mM), and the radioactivity of the plate bottom surface at ordinary temperature was measured with a scintillation counter over time, and the radioactivity value after 100 to 200 min was analyzed.

Row | IC50 [µM] | Compound
1 | 0.096 | O=C(/C=C/c1ccc(C(F)(F)F)cc1F)NCC(=O)N1CCN(C[C@H]2C[C@@H](C(=O)O)C2)CC1c1ccc(Cl)cc1 (mixture of isomers) [I-249, 3-[[3-(4-chlorophenyl)-4-[2-[[(E)-3-[2-fluoro-4-(trifluoromethyl)phenyl]prop-2-enoyl]amino]acetyl]piperazin-1-yl]methyl]cyclobutane-1-carboxylic acid]
2 | 0.05 | COC(=O)CCCN1CCN(C(=O)CNC(=O)/C=C/c2ccc(C(F)(F)F)cc2)C(c2ccccc2)C1 (centres unmarked) [I-4]
3 | 0.081 | COC(=O)CNc1ccc2c(c1)CCN(C(=O)CNC(=O)/C=C/c1ccc(C(F)(F)F)cc1)C2 [I-11]
4 | 0.089 | COC(=O)Cn1nc(C)c2c1CCN(C(=O)CNC(=O)/C=C/c1ccc(C(F)(F)F)cc1)C2 [I-12]
5 | 0.123 | COC(=O)CCc1cc2c(s1)CN(C(=O)CNC(=O)/C=C/c1ccc(C(F)(F)F)cc1)CC2 [I-13]
6 | 0.332 | CC(C)(C)OC(=O)C1CCN(c2ccc3c(c2)CCN(C(=O)CNC(=O)/C=C/c2ccc(C(F)(F)F)cc2)C3)C1 (centres unmarked) [I-26]
7 | 0.996 | CC(C)(C)OC(=O)CCc1ccc2c(c1)CCN(C(=O)CNC(=O)/C=C/c1ccc(C(F)(F)F)cc1)C2 [I-40]
8 | 0.709 | COc1cc(CC(=O)OC(C)(C)C)cc2c1CN(C(=O)CNC(=O)/C=C/c1ccc(C(F)(F)F)cc1)CC2 [I-43]
9 | 1.67 | COC(=O)c1cccc(C2CCCN(C(=O)CNC(=O)/C=C/c3ccc(C(F)(F)F)cc3F)C2)c1 (centres unmarked) [I-61]
10 | 0.463 | COC(=O)c1cccc(C2CN(C(=O)CNC(=O)/C=C/c3ccc(C(F)(F)F)cc3F)CCN2C)c1 (centres unmarked) [I-62]
11 | 0.042 | COC(=O)Cc1cc(F)c2c(c1)CCN(C(=O)CNC(=O)/C=C/c1ccc(C(F)(F)F)cc1F)C2 [I-118]
12 | 0.436 | O=C(O)Cc1ccc2c(c1)CCN(C(=O)CNC(=O)/C=C/c1ccc(C(F)(F)F)cc1)CC2 [I-140, 2-[3-[2-[[(E)-3-[4-(trifluoromethyl)phenyl]prop-2-enoyl]amino]acetyl]-1,2,4,5-tetrahydro-3-benzazepin-7-yl]acetic acid]
13 | 0.241 | O=C(O)Cc1ccc2c(c1)CN(C(=O)CNC(=O)/C=C/c1ccc(C(F)(F)F)cc1)C2 [I-142]
14 | 0.096 | N#Cc1c(CC(=O)O)ccc2c1CCN(C(=O)CNC(=O)/C=C/c1ccc(S(F)(F)(F)(F)F)cc1)C2 [I-152]
15 | 0.084 | O=C(O)Cc1cc(Cl)c2c(c1)CCN(C(=O)CNC(=O)/C=C/c1ccc(I)cc1)C2 [I-155]
16 | 0.251 | O=C(O)CCc1ncc2c(n1)CCN(C(=O)CNC(=O)/C=C/c1ccc(C(F)(F)F)cc1)C2 [I-156]
17 | 0.156 | O=C(/C=C/c1ccc(C(F)(F)F)cc1)NCC(=O)N1CCc2cc(N3CCC(C(=O)O)C3)ccc2C1 (centres unmarked) [I-160]
18 | 0.259 | O=C(/C=C/c1ccc(C(F)(F)F)cc1)NCC(=O)N1CCc2cc(N3CCC(C(=O)O)CC3)ccc2C1 [I-161]
19 | 0.223 | CC(Cc1ccc2c(c1)CCN(C(=O)CNC(=O)/C=C/c1ccc(C(F)(F)F)cc1)C2)C(=O)O (centres unmarked) [I-163]
20 | 0.386 | CC(CC(=O)O)c1ccc2c(c1)CCN(C(=O)CNC(=O)/C=C/c1ccc(C(F)(F)F)cc1)C2 (centres unmarked) [I-164]
21 | 0.106 | O=C(O)Cc1cc2c(cn1)CN(C(=O)CNC(=O)/C=C/c1ccc(C(F)(F)F)cc1)CC2 [I-167]

Row | IC50 [µM] | Compound
22 | 0.447 | O=C(O)Cc1ccc2c(c1)CN(C(=O)CNC(=O)/C=C/c1ccc(C(F)(F)F)cc1)CC2 [I-168]
23 | 0.24 | O=C(O)CCCc1ccc2c(c1)CCN(C(=O)CNC(=O)/C=C/c1ccc(C(F)(F)F)cc1)C2 [I-170]
24 | 0.171 | COc1cc(CC(=O)O)cc2c1CN(C(=O)CNC(=O)/C=C/c1ccc(C(F)(F)F)cc1)CC2 [I-177]
25 | 0.872 | O=C(O)Cc1cnn2c1CN(C(=O)CNC(=O)/C=C/c1ccc(C(F)(F)F)cc1)CC2 [I-179]
26 | 0.138 | O=C(O)COc1cc(Br)c2c(c1)CCN(C(=O)CNC(=O)/C=C/c1ccc(C(F)(F)F)cc1)C2 [I-181]
27 | 0.115 | O=C(O)Cc1ccc2c(c1)CCN(C(=O)CNC(=O)/C=C/c1ccc(C(F)(F)F)cc1Cl)C2 [I-188]
28 | 0.424 | O=C(O)Cc1ccc2c(c1)CCN(C(=O)CNC(=O)/C=C/c1ccc(C(F)(F)F)c(F)c1)C2 [I-189]
29 | 0.397 | O=C(O)Cc1cccc2c1CCN(C(=O)CNC(=O)/C=C/c1ccc(C(F)(F)F)cc1)C2 [I-192]
30 | 0.459 | O=C(O)CCc1cnn2c1CN(C(=O)CNC(=O)/C=C/c1ccc(C(F)(F)F)cc1)CC2 [I-193]
31 | 0.192 | O=C(O)CCc1nc2c(s1)CN(C(=O)CNC(=O)/C=C/c1ccc(C(F)(F)F)cc1)CC2 [I-200, 3-[5-[2-[[(E)-3-[4-(trifluoromethyl)phenyl]prop-2-enoyl]amino]acetyl]-6,7-dihydro-4H-[1,3]thiazolo[5,4-c]pyridin-2-yl]propanoic acid]
32 | 0.056 | N#Cc1c(CC(=O)O)ccc2c1CCN(C(=O)CNC(=O)/C=C/c1ccc(I)cc1F)C2 [I-203]
33 | 0.579 | O=C(O)Cc1ccc2n(c1=O)CCN(C(=O)CNC(=O)/C=C/c1ccc(C(F)(F)F)cc1F)C2 [I-207]
34 | 0.224 | O=C(O)Cc1ncc2c(n1)CCN(C(=O)CNC(=O)/C=C/c1ccc(C(F)(F)F)cc1)C2 [I-208]
35 | 0.263 | CC(F)(F)c1ccc(/C=C/C(=O)NCC(=O)N2CCc3cc(CC(=O)O)ccc3C2)cc1 [I-211]
36 | 0.496 | COCC1c2ccc(CC(=O)O)cc2CCN1C(=O)CNC(=O)/C=C/c1ccc(C(F)(F)F)cc1 (centres unmarked) [I-212]
37 | 0.156 | O=C(O)Cc1ccc2c(c1)C(O)CN(C(=O)CNC(=O)/C=C/c1ccc(C(F)(F)F)cc1)C2 (centres unmarked) [I-213]
38 | 0.358 | CCC1c2ccc(CC(=O)O)cc2CCN1C(=O)CNC(=O)/C=C/c1ccc(C(F)(F)F)cc1 (centres unmarked) [I-216]
39 | 0.202 | O=C(O)CNc1ccc2c(c1)CN(C(=O)CNC(=O)/C=C/c1ccc(C(F)(F)F)cc1)CC2 [I-217]
40 | 0.256 | Cc1nn(CC(=O)O)c2c1CN(C(=O)CNC(=O)/C=C/c1ccc(C(F)(F)F)cc1)CC2 [I-219]
41 | 0.1 | O=C(O)CCc1cc2c(s1)CN(C(=O)CNC(=O)/C=C/c1ccc(C(F)(F)F)cc1)CC2 [I-220]

same assay, conditions: Human BOAT1 stable expression CHO cells; phenylalanine uptake, phenylalanine 0.25 mM; read-out: hB0AT1 IC50

Row | IC50 [µM] | Compound
42 | 1.2 | O=C(O)CCCN1CCN(C(=O)CNC(=O)/C=C/c2ccc(C(F)(F)F)cc2F)C(c2cccc(Br)c2)C1 (single isomer, unassigned) [I-292, 4-[3-(3-bromophenyl)-4-[2-[[(E)-3-[2-fluoro-4-(trifluoromethyl)phenyl]prop-2-enoyl]amino]acetyl]piperazin-1-yl]butanoic acid]
43 | 0.039 | O=C(O)CCCN1CCN(C(=O)CNC(=O)/C=C/c2ccc(C(F)(F)F)cc2F)C(c2cccc(Br)c2)C1 (single isomer, unassigned) [I-293, 4-[3-(3-bromophenyl)-4-[2-[[(E)-3-[2-fluoro-4-(trifluoromethyl)phenyl]prop-2-enoyl]amino]acetyl]piperazin-1-yl]butanoic acid]
44 | 0.266 | O=C(O)CCCN1CCN(C(=O)CNC(=O)/C=C/c2ccc(C(F)(F)F)cc2F)C(c2ccc(Cl)cc2)C1 (single isomer, unassigned) [I-294, 4-[3-(4-chlorophenyl)-4-[2-[[(E)-3-[2-fluoro-4-(trifluoromethyl)phenyl]prop-2-enoyl]amino]acetyl]piperazin-1-yl]butanoic acid]
45 | 0.051 | O=C(O)CCCN1CCN(C(=O)CNC(=O)/C=C/c2ccc(C(F)(F)F)cc2F)C(c2ccc(Cl)cc2)C1 (single isomer, unassigned) [I-295, 4-[3-(4-chlorophenyl)-4-[2-[[(E)-3-[2-fluoro-4-(trifluoromethyl)phenyl]prop-2-enoyl]amino]acetyl]piperazin-1-yl]butanoic acid]
46 | 0.747 | O=C(/C=C/c1ccc(C(F)(F)F)cc1F)NCC(=O)N1CCN(CC2CC(C(=O)O)C2)CC1c1ccc(Cl)cc1 (single isomer, unassigned) [I-296, 3-[[3-(4-chlorophenyl)-4-[2-[[(E)-3-[2-fluoro-4-(trifluoromethyl)phenyl]prop-2-enoyl]amino]acetyl]piperazin-1-yl]methyl]cyclobutane-1-carboxylic acid]
47 | 0.037 | O=C(/C=C/c1ccc(C(F)(F)F)cc1F)NCC(=O)N1CCN(CC2CC(C(=O)O)C2)CC1c1ccc(Cl)cc1 (single isomer, unassigned) [I-297, 3-[[3-(4-chlorophenyl)-4-[2-[[(E)-3-[2-fluoro-4-(trifluoromethyl)phenyl]prop-2-enoyl]amino]acetyl]piperazin-1-yl]methyl]cyclobutane-1-carboxylic acid]
